Test results from patent publication US20240085429A1, “ALTERING PROTEIN FUNCTION BY PHARMACOLOGICAL TARGETING OF MEMBRANE DOMAINS” (University of Virginia Patent Foundation, priority 2021, published 2024).
Structures can show the parent of a compound that is named as a salt.

How the values were obtained:
[1] = test system: GPMVs isolated from HeLa cells; assay: High-throughput screen of the Cayman bioactive lipid library for effects on GPMV phase behavior (% phase separated vesicles, NBD-DSPE phase preference); set-up: species or system human; conditions: for Effect on % phase separated vesicles: final drug concentration 1 μM, NBD-DSPE channel; for % phase separated z-score / Pordered z-score: Table 4; for Pordered z-score: NBD-DSPE
Experimental: This approach is not practical for high throughput screening applications, which typically are performed at a single temperature. Changes in the percentage of phase-separated GPMVs were monitored at a single temperature in response to the addition of small molecules as a surrogate for measuring Tmisc directly (FIG. 1A). This approach requires that a significant fraction of GPMVs are phase separated under control conditions, such that experimentally-induced changes can be readily detected.
In phase separated vesicles these markers are enriched in their preferred domains, such that a given vesicle contains a co-existing NBD-DSPE-rich phase and a DiD-rich phase. In contrast, NBD-DSPE and DiD colocalize in a single uniform phase in GPMVs that are not phase separated. We also optimized conditions to isolate and plate GPMVs in multi-well plates.
To provide proof-of-concept, the Cayman lipid library containing ˜850 bioactive lipid-like compounds in the Vanderbilt High-throughput Screening Facility was screened, using […] of each compound across three independent screens. All screens were carried out using an automated microscope/high-content imaging system and robotic plate handler at RT. […] Compounds were initially scored based on their capacity to alter the percentage of phase separated vesicles (FIG. 2A).
HeLa cells were obtained from ATCC (cat #CCL-2) and cultured at 37° C. in 5% CO2 in a humidified tissue culture incubator. […] In brief, cells were plated in 150 mm tissue culture dishes the day before the experiment, to yield a confluence of 70-80% the day of the experiment. To generate GPMVs, cells were rinsed twice in 10 ml of GPMV buffer (2 mM DTT, 25 mM formaldehyde, 150 mM NaCl, 10 mM HEPES, 2 mM CaCl2), pH=7.4) and subsequently incubated in 12 ml of GPMV buffer at 37° C. with gentle shaking at 70 rpm for 1.5 h. The raft marker NBD-DSPE (1,2-distearoyl-sn-glycero-3-phosphoethanolamine-N-(7-nitro-2-1,3-benzoxadiazol-4-yl; Avanti Polar Lipids) and the non-raft marker DiD (1,1′-dioctadecyl-3,3,3′,3′-tetramethylindodicarbocyanine perchlorate; cat #D307 Thermo Scientific) were added from stock solutions in ethanol to the GPMV suspension at final concentrations of 5-6 μg/ml and 1 μg/ml, respectively, for the initial screenings. For some experiments, cells were prelabelled with 5 μg/ml DiD for 8 min at 4° C. and washed several times prior to GPMVs generation. Screening was performed the same day that GPMVs were generated.
[…] GPMVs suspension in GPMV buffer was then added to each well of a 96-well plate to obtain a final drug concentration of 1 μM. The GPMVs were allowed to settle to the bottom of the plates for 1.5 h prior to imaging. Samples were prepared and imaged at RT. The screen was repeated on three different days using three separately prepared batches of GPMVs (3 biological replicates).
Image acquisition was performed with an ImageXpress Micro XL automated microscope (Molecular Devices) using a Nikon 40X 0.6 NA Super Plan Fluor ELWD objective and a Lumencor Sola solid-state light source. Laser autofocus was employed at each site to obtain the best focus z-plane for each channel. […] Sixteen sites were captured per well using a 4.2 MP widefield scientific cMOS camera with a camera binning of 1. Each plate took approximately 1.3 h to image. Multiple plates were loaded to a plate carousel (ThermoScientific), shuttled to/from the ImageXpress via a ThermoScientific CRS F3 robot arm, and automatically run through the Momentum scheduling software (Thermo). To analyze the data, images and metadata were exported as TIFF files and subjected to image analysis using a custom MATLAB-based program as described below.

[2] = test system: GPMVs generated from HeLa cells; assay: Tmisc measurements (temperature scan of % phase separated GPMVs); set-up: species or system human; conditions: 1 μM C6 ceramide or 10 μM TLCK, 2 independent experiments
Experimental: GPMVs were generated from HeLa cells and either labelled with NBD-DSPE and DiI as described above (TLCK experiments) or labelled with DiI-C12 (C6-cermide experiments). They were then treated with 1 μM C6 ceramide (Sigma Aldrich) or 10 μM TLCK (Cayman) for 1-2 h, mounted in a chamber formed from two coverslips separated by a silicon spacer in the continued presence of drug or an equivalent volume of DMSO (final concentration=0.1 mol %), and allowed to settle for 1 h prior to being imaged.
Tmisc measurements for GPMVs treated with C6-ceramide were performed using a Zeiss LSM 510 confocal microscope. […] DiI-C12 fluorescence was excited using the 543 nm line of a HeNe laser and images were collected at 1× digital zoom. […] For these datasets, the number of phase separated GPMVs was scored manually. […]
Tmisc measurements for GPMVs treated with TLCK were performed using a Zeiss A880 confocal microscope. […] NBD-DSPE fluorescence was excited using a 458 Argon laser line and detected using a 458/548 dichroic and 482-614 nm band pass filter. DiD fluorescence was excited using a 633 nm HeNe laser and emission was collected using a 633/698.5 dichroic and a 638-759 nm band pass filter. […] For these datasets, the percentages of phase separated GPMVs were scored using the “colocalization” method using the MATLAB algorithm described above. […]

SMILES | Effect on % phase separated vesicles ([1]; HeLa GPMVs, RT) | % phase separated z-score ([1]; HeLa GPMVs, final 1 μM, RT) | Pordered z-score ([1]; HeLa GPMVs, final 1 μM, RT) | change in Tmisc relative to DMSO [2] | Effect on Pang(ϕ) ([1]; NBD-DSPE raft phase preference, HeLa GPMVs, final 1 μM, RT) | raft modulation in the GPMV model ([1]; screen result in words)
CCCCCCCCCCCCC/C=C/[C@@H](O)[C@H](CO)NC(=O)CCCCC [C6 Ceramide (d18:1/6:0)] | ↓ | −3.01 | 0.76 | lowered Tmisc |  | 
Cc1ccc(S(=O)(=O)N[C@@H](CCCCN)C(=O)CCl)cc1 [TLCK hydrochloride, Nα-Tosyl-Lys Chloromethyl Ketone] | ↑ | 6.73 | 5.69 | increased Tmisc | ↑ | potent raft stabilizer
